Patent US20230124142A1, “NEW THERAPEUTIC TARGETS WITH AN ANTI-INFLAMMATORY AND ANTI-INTERFERON EFFECT” (UNIVERSITÉ PARIS CITÉ, priority 2020, published 2023)

Columns and labels:
[1] = test system: THP1-Dual human monocyte cell line; test: Cell toxicity on THP1-Dual, ATP quantification with CellTiter Glo; format: cell-based; conditions: cGAMP 24 h
[2] = test system: neurones infected by the prions; format: cell-based
[3] = test system: THP1-Dual human monocyte cell line; test: Interferon response of cGAMP-activated THP1-Dual cells, luciferase; conditions: inhibitor 1 h before cGAMP 3 μg/ml, 24 h, luciferase (FIG. 22B, 23B)
[4] = test system: peripheral blood mononuclear cells (PBMCs); test: Cell toxicity on PBMCs, ATP quantification with CellTiter Glo; format: cell-based, human; conditions: cGAMP 24 h
[5] = test system: peripheral blood mononuclear cells (PBMCs) of healthy donors; test: Secretion of inflammatory cytokines and interferons by PBMCs after TLR7/8 (R848) stimulation, LegendPlex
[6] = test system: HEK293 non-immune cell line; test: Interferon production by cGAMP-activated HEK293 non-immune cells (STING-37), luciferase; conditions: inhibitor at 1 μM (FIG. 23C)
[7] = test system: activated immune cells; test: Secretion of inflammatory cytokines and interferons by activated immune cells placed in contact with ROCK inhibitor; format: cell-based; conditions: compared with activated immune cells not placed in contact with the inhibitor
[8] = test system: peripheral blood mononuclear cells (PBMCs); test: Interferon production by cGAMP-activated PBMCs, STING-37 reporter cell line; conditions: inhibitor 1 h before cGAMP 3 μg/ml, 24 h, STING-37 reporter (FIG. 22A, 23A)
[9] = test system: peripheral blood mononuclear cells (PBMCs) of healthy donors; test: Secretion of inflammatory cytokines and interferons by PBMCs after TLR4 stimulation, LegendPlex; format: cell-based, human; conditions: 24 h, LegendPlex (FIG. 7)
[10] = test system: immune cells (PBMCs and purified monocytes) of healthy donors; test: Production of inflammatory cytokines by PBMCs and purified monocytes after TLR2/4 stimulation by bacterial agents; format: cell-based, human; conditions: TLR 2/4 stimulation by lipoteichoic acid/LPS
[11] = test system: peripheral blood mononuclear cells (PBMCs) of healthy donors; test: Toxicity on PBMCs (CellTiter-Glo), TLR4 stimulation; format: cell-based, human; conditions: 24 h, CellTiter-Glo (FIG. 8)
Procedure: (§1) After 24 h of cell culture, the cell viability was determined using the CellTiter-Glo reagent (Promega), which evaluates the amount of ATP by luminescence using the EnSpire.

[12] = test system: monocytes of healthy donors; test: Intracellular IL1β and TNFα in monocytes after inflammasome activation by uric acid crystals (MSU, gout model), flow cytometry; format: cell-based, human
Procedure: (§2) The cells were rinsed in PBS then incubated with a viability dye (Zombie Aqua, Biolegend) for 30 min at ambient temperature. After washing, the cells were resuspended in PBS containing 2% SVF and 2 mM EDTA then labelled with the APC Vio770 anti-CD14 (clone REA599) antibody from Miltenyi Biotec, used at 1/100°. […] Data acquisition was carried out on the Canto II flow cytometer using the Diva software (BD Biosciences, San Jose, Calif.). The Kaluza software was used to analyze the data.

[13] = test system: plasmacytoid dendritic cells (pDC) of healthy donors; test: Intracellular IFNα and TNFα in plasmacytoid dendritic cells in response to HIV, flow cytometry; format: cell-based, human; conditions: AT-2-inactivated HIV-1MN, 16 h
Procedure: The cells were rinsed in PBS then incubated with a viability dye (Zombie Aqua, Biolegend) for 30 min at ambient temperature. After washing, the cells were resuspended in PBS containing 2% SVF and 2 mM EDTA then labelled with the APC Vio770 anti-CD14 (clone REA599) antibody from Miltenyi Biotec, used at 1/100°. For the intracellular labelling of TNFα and IFNα, the “Inside Stain” kit (Miltenyi Biotec) was used according to the manufacturer's protocol. The cells were fixed for 20 min at ambient temperature with 250 μL Inside Fix solution then labelled in 100 μL Inside Perm solution containing the APC anti-TNFα (Miltenyi Biotec) and/or PE anti-IFNα (Miltenyi Biotec) antibody at 1/50° for 30 min at ambient temperature. Data acquisition was carried out on the Canto II flow cytometer using the Diva software (BD Biosciences, San Jose, Calif.). The Kaluza software was used to analyze the data.

[14] = test system: monocytes of healthy donors; test: Intracellular TNFα production in monocytes after TLR2 (lipoteichoic acid, LTA) stimulation, flow cytometry; format: cell-based, human; conditions: inhibitor 1 h before LTA (TLR2) 1 μg/ml, 16 h, flow cytometry (FIG. 6)
Procedure: (§3) The cells were rinsed in PBS then incubated with a viability dye (Zombie Aqua, Biolegend) for 30 min at ambient temperature. After washing, the cells were resuspended in PBS containing 2% SVF and 2 mM EDTA then labelled with the APC Vio770 anti-CD14 (clone REA599) antibody from Miltenyi Biotec, used at 1/100°. […] The cells were fixed for 20 min at ambient temperature with 250 μL Inside Fix solution then labelled in 100 μL Inside Perm solution containing the PE anti-TNFα (Miltenyi Biotec) and/or APC anti-IL-1β (Miltenyi Biotec) antibody at 1/50° for 30 min at ambient temperature. Data acquisition was carried out on the Canto II flow cytometer using the Diva software (BD Biosciences, San Jose, Calif.). The Kaluza software was used to analyze the data.

[15] = test system: monocytes of patients suffering from juvenile idiopathic arthritis; test: Spontaneous TNFα production by monocytes of juvenile idiopathic arthritis patients, SIMOA (digital ELISA); format: cell-based, human; conditions: inhibitor 24 h, SIMOA (FIG. 16)
Procedure: The assay of the TNFα secreted by the monocytes of a patient suffering from juvenile idiopathic arthritis was carried out by SIMOA (digital ELISA).

[16] = test system: peripheral blood mononuclear cells (PBMCs) of healthy donors; test: Interferon secretion by R848-stimulated PBMCs, inhibitor before, during or after stimulation, STING-37 reporter cell line; format: cell-based, human
[17] = test system: peripheral blood mononuclear cells (PBMCs) of healthy donors; test: Toxicity on PBMCs (CellTiter-Glo), HIV; format: cell-based, human; conditions: PBMCs of healthy donors infected with HIV, 24 h, CellTiter-Glo (FIG. 14)
Procedure: as §1

[18] = test system: peripheral blood mononuclear cells (PBMCs) of healthy donors; test: Toxicity on PBMCs (CellTiter-Glo), TLR7/8 stimulation; format: cell-based, human; conditions: TLR 7/8 stimulation, 24 h, CellTiter-Glo (FIG. 4)
Procedure: Test for toxicity of the compounds on the peripheral blood mononuclear cells (PBMCs).
as §1

[19] = test system: monocytes of healthy donors; test: Intracellular TNFα production in monocytes after TLR7/8 (Resiquimod-R848) stimulation, flow cytometry; format: cell-based, human; conditions: inhibitor 1 h before R848 (TLR7/8), 16 h, flow cytometry (FIG. 1, 2)
Procedure: as §2, with “[…]” for “II”

[20] = test system: monocytes of healthy donors; test: Intracellular TNFα production in monocytes after TLR4 (LPS) stimulation, flow cytometry; format: cell-based, human; conditions: inhibitor 1 h before LPS (TLR4) 100 ng/ml, 16 h, flow cytometry (FIG. 5)
Procedure: as §3

[21] = test system: peripheral blood mononuclear cells (PBMCs) of healthy donors; test: Secretion of inflammatory cytokines and interferons by PBMCs in response to HIV, LegendPlex; format: cell-based, human; conditions: 24 h, LegendPlex (FIG. 13)
[22] = PBMCs of healthy donors, inhibitor 1 h before R848 (TLR7/8), 24 h, LegendPlex (FIG. 3)

Cc1cncc2cccc(S(=O)(=O)N3CCCNCC3C)c12 (stereo not drawn) [dimethylfasudil]
viability of the THP1-Dual [1]: without affecting the viability
level of TNFα in the culture medium [2]: re-establishes a “normal” level
production of interferons (IFN) induced by the cGAMP [3]: blocks the production of interferons (IFN) induced by the cGAMP according to a dosage effect starting from 1 μM
viability of the PBMCs [4]: without affecting the viability
production of TNFα and of pro-inflammatory cytokines such as IL-6, IL-1β and the interferons induced by the TLR7/8 stimulation ([5]; human PBMCs incubated with inhibitor before R848 stimulation): inhibits the production
production of interferon induced by the STING ligand [6]: does not block
secretion of the inflammatory cytokines (TNFα, IL-1β, IL6, MCP1 (CCL2)) and of the interferons (IFN) [7]: inhibits the secretion
production of interferons (IFN) induced by the cGAMP [8]: blocks the production of interferons (IFN) induced by the cGAMP according to a dosage effect starting from 1 μM

BX912
secretion of the inflammatory cytokines (IL-6, IL-1β, TNFα, GM-CSF, IL-10) [9]: inhibits the secretion
secretion of the interferons (IFNI2/3, IFNβ, IFNg) [9]: inhibits the secretion
production of inflammatory cytokines [10]: capable of inhibiting the production of inflammatory cytokines
toxicity on PBMCs [11]: no toxicity
production of inflammatory cytokines ([12]; activation of the inflammasome by uric acid crystals (mimicking gout)): capable of inhibiting the production of inflammatory cytokines
intracellular production of IL1β ([12]; uric acid crystals (MSU) 50 μg/ml, 16 h, gout model (FIG. 9)): inhibits the intracellular production
production of TNFα ([12]; uric acid crystals (MSU) 50 μg/ml, 16 h, gout model (FIG. 10)): inhibits the production
intracellular production of interferon IFNα ([13]; flow cytometry (FIG. 11)): inhibits the intracellular production
production of TNFα ([13]; flow cytometry (FIG. 12)): inhibits the production
production of inflammatory cytokines (TNFα) [14]: inhibits, according to a dosage effect
spontaneous production of TNFα [15]: inhibits the spontaneous production
secretion of interferons ([16]; inhibitor during the TLR 7/8 stimulation, STING-37 reporter (FIG. 15B)): blocking
secretion of interferons ([16]; inhibitor in a curative manner, 1 h after TLR 7/8 stimulation, STING-37 reporter (FIG. 15C)): blocking
secretion of interferons ([16]; inhibitor in a preventive manner, 1 h before TLR 7/8 stimulation, STING-37 reporter (FIG. 15A)): blocking
secretion of the inflammatory cytokines (IL-6, IL-1β, TNFα, IP10, GM-CSF, IL-10) [5, 22]: inhibits the secretion
secretion of the interferons (IFNI1, IFNI2/3, IFNβ, IFNg) [5, 22]: inhibits the secretion
toxicity on PBMCs [17]: no toxicity
toxicity on the immune cells (PBMCs) [18]: no toxicity
intracellular production of inflammatory cytokines (TNFα) [19]: inhibits, according to a dosage effect
production of inflammatory cytokines (TNFα) [20]: inhibits, according to a dosage effect
secretion of the inflammatory cytokines (IL-6, IL-1β, TNFα, IP10) [21]: inhibits the secretion
secretion of the interferons (IFNα2, IFNβ, IFNI1) [21]: inhibits the secretion
